Measurements from patent US20100048482A1, “COMPOSITIONS AND METHODS FOR MODULATING EPSILON PROTEIN KINASE C-MEDIATED CYTOPROTECTION” (Board of Trustees of the Leland Stanford Junior University, priority 2008, published 2010).
“Also recorded” adds a separate entry of the source. Ends that are not written are not given here.

Experiments:
εPKC = target: T1, εPKC (Rattus norvegicus, UniProt P09216); assay: IR-induced mitochondrial translocation of εPKC (western blot of heart mitochondrial fraction)
T1 construct: Rat heart ventricles were removed from the cannula and homogenized; from tissue; host or cells: Wistar rat heart ventricle; mitochondrial, IMM or plasma membrane fractions
T1 sequence (P09216 1-737): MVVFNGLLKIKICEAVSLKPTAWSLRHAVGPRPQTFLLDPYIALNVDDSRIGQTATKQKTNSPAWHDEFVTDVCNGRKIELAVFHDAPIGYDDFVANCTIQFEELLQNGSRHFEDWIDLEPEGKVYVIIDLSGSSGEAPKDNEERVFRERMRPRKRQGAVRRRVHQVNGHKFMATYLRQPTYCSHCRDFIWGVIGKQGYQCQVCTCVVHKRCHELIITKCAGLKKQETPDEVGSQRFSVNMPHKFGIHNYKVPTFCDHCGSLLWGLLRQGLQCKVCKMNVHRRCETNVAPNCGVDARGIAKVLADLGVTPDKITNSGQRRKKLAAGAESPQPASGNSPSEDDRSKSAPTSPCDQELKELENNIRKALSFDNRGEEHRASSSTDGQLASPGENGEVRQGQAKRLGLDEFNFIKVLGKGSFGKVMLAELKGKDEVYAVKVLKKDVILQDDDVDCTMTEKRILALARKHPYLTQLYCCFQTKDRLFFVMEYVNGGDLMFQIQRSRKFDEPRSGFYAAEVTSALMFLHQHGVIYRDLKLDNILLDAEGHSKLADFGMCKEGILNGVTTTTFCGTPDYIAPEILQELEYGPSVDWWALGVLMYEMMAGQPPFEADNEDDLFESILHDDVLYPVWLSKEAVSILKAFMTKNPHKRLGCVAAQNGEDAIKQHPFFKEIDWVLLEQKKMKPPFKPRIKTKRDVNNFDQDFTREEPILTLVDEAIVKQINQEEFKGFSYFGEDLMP
Protocol: (§1) Rat hearts (Wistar, 250-300 g) were excised and cannulated on a Langendorff apparatus via the aorta. Briefly, retrograde perfusion was carried out with a constant coronary flow rate of 10 ml/min with oxygenated Krebs-Henseleit buffer containing 120 mM NaCl, 5,8 mM KCl, 25 mM NaHCO3, […], 1.2 mM MgSO4, 1.2 mM CaCl2, and 10 mM dextrose, pH 7.4 at 37° C. After a 20 min equilibration period, hearts were subjected to a 35 min of no-flow, global ischemia followed by 15 min of reperfusion. Control hearts were perfused with normoxic Krebs buffer and were time-matched for the experimental period. […] At the end of the 15 mins reperfusion period, hearts were rapidly transferred to ice-cold homogenization buffer and subcellular fractions separated by differential centrifugation as described below.
Rat heart ventricles were removed from the cannula and homogenized in ice-cold mannitol-sucrose buffer (210 mM mannitol, 70 mM sucrose, 5 mM MOPS and 1 mM EDTA containing Sigma Protease Inhibitor 1 and Sigma Phosphatase Inhibitors 1 and 2, added per manufacturer's instructions) The resultant homogenate was filtered through gauze and centrifuged at 700 g for 5 minutes to pellet nuclei and cellular debris. […] Mitochondrial purity was also assessed by electron microscopic analysis. Protein concentration was determined by Bradford assay and 10 μg protein separated on a 12% SDS-PAGE gel and transferred to nitrocellulose. PKC translocation was measured using antibodies raised against εPKC and δPKC with mitochondrial (ANT) and cytosolic (GAPDH) markers used to ensure equal sample loading of the mitochondrial and cytosolic fractions, respectively. […]
During reperfusion, ischemia-induced cell damage was determined by measuring the activity of creatine phosphokinase (CPK) in the coronary perfusate, carried out using a standard assay kit (Equal Diagnostics, CT, USA). […] Translocation of εPKC and the related isoform δPKC to the mitochondria and plasma membrane was determined by western blotting using εPKC and δPKC antibodies (Santa Cruz Biotechnology) (FIG. 5C). […]

[1] = test system: Langendorff perfused rat heart; assay: Ex vivo Langendorff perfused rat heart ischemia-reperfusion, creatine phosphokinase (CPK) release; conditions: for effect on IR-induced CPK release / IR injury: ex vivo IR
Protocol: In accordance with a well-established ex vivo rat heart model for ischemia-reperfusion (see, e.g., U.S. Publication Nos. 20080167247, 20080153926, 20070299012, and 20060293237, which are herein incorporated by reference) and the method described in Example 1, hearts were removed from animals (rats) and subjected to a normoxia or an IR protocol, both depicted in FIG. 1A. The normoxia regimen comprised exposing hearts to 70 minutes of a normal oxygen state. The IR (ischemia/reperfusion) regimens comprised subjecting hearts to 20 minutes of normoxia, followed by 35 minutes of ischemia, followed by 15 minutes of reperfusion. […] The amount of necrotic cell death was then determined by measuring the release of creatine phosphokinase (CPK) into the buffer perfusate during reperfusion, which served as an indicator of ischemic damage.
as §1
Necrotic damage was determined by measurement of the release of the cardiac myocyte cytosolic enzyme, creatine phosphokinase (CPK), into the effluent (FIG. 1B). The levels are expressed in arbitrary CPK units.
Isolated rat hearts were perfused with oxygenated Krebs-Henseleit solution comprised of NaCl ([…]); KCl ([…]); NaHCO3 ([…]); NaH2O4 ([…]); MgSO4 (1.2 nmol/L); CaCl2 (1.0 nmol/L); and dextrose (10 nmol/L), pH 7.4 at 37 C. After a 10 minute equilibration period, the hearts were treated with the ψεHSP90 peptide or control buffer solution. As depicted in FIG. 5A, Perfusion was maintained at a constant flow of 10 mL/min with Krebs-Henseleit solution containing 1 μM of the appropriate peptide. The Langendorff method employs retrograde flow […] and into the coronary arteries, bypassing the pulmonary arteries. To induce global ischemia, flow was interrupted for 35 minutes. After the ischemic event, the hearts were reperfused with Krebs-Henseleit solution for 15 minutes.
During reperfusion, ischemia-induced cell damage was determined by measuring the activity of creatine phosphokinase (CPK) in the coronary perfusate, carried out using a standard assay kit (Equal Diagnostics, CT, USA). The ψεHSP90 peptide was perfused in Langendorf mode for 10 minutes before and 10 minutes after the ischemic period (1 micromolar) and myocardial injury was assayed by the release of CPK into the effluent during reperfusion (FIG. 5B). Similar to the previous results, hearts that were subjected to IR had high levels of CPK in the effluent; however, perfusion with ψεHSP90 peptide decreased CPK release by 47% (n4; p<0.05; FIG. 5B). Translocation of εPKC and the related isoform δPKC to the mitochondria and plasma membrane was determined by western blotting using εPKC and δPKC antibodies (Santa Cruz Biotechnology) (FIG. 5C). […] Physical interaction between PKCε and HSP90 was determined by co-immunoprecipitation of PKCε and HSP90 in the mitochondrial fraction in hearts exposed to normoxia or IR in the absence or presence of 1 μM ψεHSP90 (FIG. 5D).

recombinant human εPKC = target: T2, recombinant human εPKC (Homo sapiens, UniProt Q02156); assay: In vitro mitochondrial translocation assay, recombinant GST-εPKC with isolated rat cardiac mitochondria; format: biochemical; conditions: for mitochondrial translocation of εPKC in the absence of phospholipids (PS/DAG): 1 μM ψεHSP90, hydrogen peroxide present, no PS/DAG, FIG. 6B lane 5
T2 construct: purchased Cell Signaling Technology
T2 sequence (Q02156 1-737): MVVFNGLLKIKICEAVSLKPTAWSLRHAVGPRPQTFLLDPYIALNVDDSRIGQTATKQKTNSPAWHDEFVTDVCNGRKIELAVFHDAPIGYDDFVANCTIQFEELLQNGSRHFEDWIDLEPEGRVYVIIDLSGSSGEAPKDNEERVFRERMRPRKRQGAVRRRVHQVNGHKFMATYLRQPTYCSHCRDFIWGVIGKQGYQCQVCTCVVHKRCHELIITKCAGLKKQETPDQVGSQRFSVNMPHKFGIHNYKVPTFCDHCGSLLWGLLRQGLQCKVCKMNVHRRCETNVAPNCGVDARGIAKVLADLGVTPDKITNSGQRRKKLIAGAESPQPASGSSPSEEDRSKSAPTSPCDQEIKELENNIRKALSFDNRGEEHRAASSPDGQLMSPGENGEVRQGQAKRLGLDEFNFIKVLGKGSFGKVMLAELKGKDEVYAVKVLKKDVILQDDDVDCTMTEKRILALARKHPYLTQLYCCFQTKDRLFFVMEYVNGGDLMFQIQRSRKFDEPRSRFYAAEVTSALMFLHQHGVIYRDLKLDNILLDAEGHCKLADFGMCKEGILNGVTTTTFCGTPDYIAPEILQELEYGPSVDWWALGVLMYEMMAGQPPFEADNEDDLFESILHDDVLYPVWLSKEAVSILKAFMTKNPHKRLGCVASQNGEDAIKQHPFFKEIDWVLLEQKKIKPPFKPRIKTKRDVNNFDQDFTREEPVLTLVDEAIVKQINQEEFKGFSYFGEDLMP
Protocol: An in vitro approach was used to identify cellular components that were important for εPKC translocation to the mitochondria. As described in Example 5, mitochondria were isolated from normoxic hearts and incubated for 20 minutes at 37° C. with purified recombinant GST-tagged εPKC (Cell Signaling Technology Inc,), which was pretreated by different combinations of PKC activation components including phospholipids and hydrogen peroxide (H2O2) in the absence (FIG. 6A) and presence (FIG. 6B) of the ψεHSP90 peptide. Following incubation of PKCε with its activation components, mitochondria were introduced into the εPKC mixture and incubated for an additional 20 minutes, after which the mitochondria were pelleted by centrifugation and then probed with antibodies selective for PKCε and the mitochondrial marker VDAC The use of GST-tagged εPKC allowed the distinction, based on size, between exogenous GST-εPKC and native/endogenous εPKC present in the mitochondria prior to treatment. Rabbit reticulocyte lysate (RRL) was used as an exogenous source of HSP90 as described previously (Scherrer et al., Biochemistry. 1992. 31:7325-7329)
Activation of recombinant εPKC was performed as described in the art. Briefly, recombinant εPKC (5 μl of 10 ng/μl stock) (Cell Signaling Technology) was aliquoted into assay buffer (20 mM Tris HCl, 50 mM KCl, 1 mM DTT, 0.1 mg/ml BSA Mg^2+ (5 mM), ATP (100 μM), pH 7.4) containing different combinations of activation factors including phosphatidylserine/diacylglycerol (1 mM), H2O2 (50 μM) or ψεHSP90 (1 μm) in a final volume of 50 μl . εPKC was activated by incubation in assay buffer at 37° C. for 20 min. Rabbit reticulocyte lysate (RRL) (10 μl) was added to the incubation mixture for 10 minutes after εPKC activation. […] Mitochondria were then spun at 10,000 g×10 min, resuspended in 50 μl sample loading buffer and mitochondrial εPKC levels measured by western blotting using VDAC as a loading control. […]

εPKC and HSP90 = target: T3, εPKC and HSP90 (Rattus norvegicus, UniProt P09216); assay: Co-immunoprecipitation of εPKC and HSP90 in heart mitochondrial fraction after IR
T3 construct: 200-500 μg of mitochondrial or cytosolic protein was diluted into 1 ml of IP Lysis Buffer; from tissue; host or cells: Wistar rat heart; mitochondrial (and cytosolic) fraction
T3 sequence (P09216 1-737): T1 sequence (P09216 1-737)
Protocol: Since εPKC and HSP90 are predominately cytosolic proteins, it was expected to observe co-immunoprecipitation of εPKC and HSP90 in the cytosolic fraction following exposure to IR.
200-500 μg of mitochondrial or cytosolic protein was diluted into 1 ml of IP Lysis Buffer (150 mM NaCl, 10 mM Tris-HCl, 5 mM EDTA, 0.1% Triton X-100, pH=7.4, containing Sigma Protease Inhibitor 1 and Sigma Phosphatase Inhibitors 1 and 2). Proteins were incubated with εPKC antibody (2 μg) for 2 hours at 4° C. with inversion mixing. 10 μg of Protein A/G Beads (Santa Cruz Biotechnology) were added and the mixture was incubated overnight at 4° C. with inversion mixing. Beads were then centrifuged, washed 3× in IP Lysis Buffer, then re-suspended in sample buffer. Immunoprecipitated proteins were separated on 10% SDS-PAGE gels. The presence of associated proteins was determined by western blotting using antibodies specific for PKCε HSP90, TOM20 and TIM23. Protein immunoprecipitation was then repeated in reverse (immunoprecipitation with HSP90, TOM20 or TIM23 antibodies followed by western blotting with εPKC antibody). […]

δPKC = assay: IR-induced mitochondrial translocation of δPKC (western blot of heart mitochondrial fraction); set-up: species or system rat; conditions: 1 μM ψεHSP90
PKCε = target: T4, PKCε (Rattus norvegicus, UniProt P09216); assay: PKCε translocation to plasma membrane fraction after IR (western blot); conditions: 1 μM ψεHSP90
T4 construct: Rat heart ventricles were removed from the cannula and homogenized; from tissue; host or cells: Wistar rat heart ventricle; mitochondrial, IMM or plasma membrane fractions
T4 sequence (P09216 1-737): T1 sequence (P09216 1-737)
Protocol: Rat heart ventricles were removed from the cannula and homogenized in ice-cold mannitol-sucrose buffer (210 mM mannitol, 70 mM sucrose, 5 mM MOPS and 1 mM EDTA containing Sigma Protease Inhibitor 1 and Sigma Phosphatase Inhibitors 1 and 2, added per manufacturer's instructions) The resultant homogenate was filtered through gauze and centrifuged at 700 g for 5 minutes to pellet nuclei and cellular debris. The supernatant was centrifuged at 10,000 g to pellet the mitochondrial-enriched fraction and the supernatant from this fraction centrifuged at 100,000 g to pellet the plasma membrane fraction. […] Mitochondrial purity was also assessed by electron microscopic analysis. Protein concentration was determined by Bradford assay and 10 μg protein separated on a 12% SDS-PAGE gel and transferred to nitrocellulose. PKC translocation was measured using antibodies raised against εPKC and δPKC with mitochondrial (ANT) and cytosolic (GAPDH) markers used to ensure equal sample loading of the mitochondrial and cytosolic fractions, respectively. Densitometry was performed using Image J software (NIH).
During reperfusion, ischemia-induced cell damage was determined by measuring the activity of creatine phosphokinase (CPK) in the coronary perfusate, carried out using a standard assay kit (Equal Diagnostics, CT, USA). […]

block of IR-induced translocation of εPKC to the mitochondrial fraction (εPKC; GA 5 μm during reperfusion, n=5, p<0.05) [%] | effect on mitochondrial translocation of PKCε after IR (εPKC; 1 μM ψεHSP90) | higher mitochondrial PKCε levels versus IR group untreated with peptide (εPKC; IR in the presence of 1 μm ψεHSP90 peptide) [%] | mitochondrial translocation of εPKC in the absence of phospholipids (PS/DAG) (recombinant human εPKC) | mitochondrial translocation of εPKC in the absence of phospholipids (PS/DAG) (recombinant human εPKC; listed as ψεHSP90) | effect on association/translocation of εPKC with isolated mitochondria in vitro (recombinant human εPKC; 1 μM ψεHSP90, FIG. 6B lanes 2-5) | reduction of IR-induced CPK release ([1]; 1 μM TAT-conjugated peptide, 10 min before ischemia and first 10 min of reperfusion, versus IR alone, p<0.05) [%] | effect on IR-induced physical association of PKCε and HSP90 at the mitochondria (εPKC and HSP90; 1 μM ψεHSP90) | increase in IR-induced physical interaction between HSP90 and PKCε (co-immunoprecipitation) (εPKC and HSP90; 1 μM ψεHSP90, mitochondrial fraction) [fold] | effect on PKCε translocation to the plasma membrane (PKCε) | Compound | increase in CPK release ([1]; IR (35 min ischemia, 15 min reperfusion) with 5 μM GA during reperfusion, versus IR alone, n=7, p<0.05) [%] | effect on CPK release in the absence of IR injury ([1]; normoxic hearts, 5 μm or 10 μm GA) | effect on IR-induced CPK release / IR injury ([1]; 1 μM TAT-conjugated peptide) | effect on PKCδ association with the mitochondria after IR (δPKC) | effect on IR-induced CPK release / IR injury ([1]; 1 μM TAT-conjugated peptide, listed as corresponding sequence from the HSP90 protein)
54 |  |  |  |  |  |  |  |  |  | COC1=C2C[C@@H](C)C[C@H](OC)[C@H](O)[C@@H](C)/C=C(\C)[C@H](OC(N)=O)[C@@H](OC)/C=C\C=C(/C)C(=O)NC(=CC1=O)C2=O [GA, geldanamycin] | 176 | no effect |  |  | 
 | enhanced | ~20 | resulted in translocation of εPKC | sufficient to induce | increased | 47 | increased | ~4 | did not affect | PKDNEER (not fully specified) [ψεHSP90 peptide] |  |  | significantly reduced | not altered; also recorded: without effect | 
 |  |  |  |  |  |  |  |  |  | PEDEEEK (not fully specified) |  |  | no statistical effect |  | no effect
